Results taken from ChEMBL document CHEMBL4507291 (2021).

Key:
[1] = target: MAP kinase-interacting serine/threonine-protein kinase 2 (Homo sapiens) (UniProt Q9HBH9); assay: MKNK2 (MNK2) Kinase screen; details: Compound concentration 1.0 uM
[2] = target: Fibroblast growth factor receptor 3 (Homo sapiens) (UniProt P22607); assay: FGFR3 Kinase screen; details: Compound concentration 1.0 uM
[3] = target: Ribosomal protein S6 kinase alpha-5 (Homo sapiens) (UniProt O75582); assay: RPS6KA5 (MSK1) Kinase screen; details: Compound concentration 1.0 uM
Caspase-3 (Homo sapiens) = Caspase-3 (Homo sapiens) (UniProt P42574); assay: Peptidase, CASP3 (Caspase 3) Eurofins-Panlabs enzyme assay; details: Compound concentration 10.0 uM
[4] = target: Epidermal growth factor receptor (Homo sapiens) (UniProt P00533); assay: EGFR (ErbB1) Kinase screen; details: Compound concentration 1.0 uM
[5] = target: Protein-tyrosine kinase 6 (Homo sapiens) (UniProt Q13882); assay: PTK6 (Brk) Kinase screen; details: Compound concentration 1.0 uM
[6] = target: T1, NUAK family SNF1-like kinase 1 (Homo sapiens) (UniProt O60285); assay: NUAK1 (ARK5) Kinase screen; details: Compound concentration 1.0 uM
T1 sequence (whole entry): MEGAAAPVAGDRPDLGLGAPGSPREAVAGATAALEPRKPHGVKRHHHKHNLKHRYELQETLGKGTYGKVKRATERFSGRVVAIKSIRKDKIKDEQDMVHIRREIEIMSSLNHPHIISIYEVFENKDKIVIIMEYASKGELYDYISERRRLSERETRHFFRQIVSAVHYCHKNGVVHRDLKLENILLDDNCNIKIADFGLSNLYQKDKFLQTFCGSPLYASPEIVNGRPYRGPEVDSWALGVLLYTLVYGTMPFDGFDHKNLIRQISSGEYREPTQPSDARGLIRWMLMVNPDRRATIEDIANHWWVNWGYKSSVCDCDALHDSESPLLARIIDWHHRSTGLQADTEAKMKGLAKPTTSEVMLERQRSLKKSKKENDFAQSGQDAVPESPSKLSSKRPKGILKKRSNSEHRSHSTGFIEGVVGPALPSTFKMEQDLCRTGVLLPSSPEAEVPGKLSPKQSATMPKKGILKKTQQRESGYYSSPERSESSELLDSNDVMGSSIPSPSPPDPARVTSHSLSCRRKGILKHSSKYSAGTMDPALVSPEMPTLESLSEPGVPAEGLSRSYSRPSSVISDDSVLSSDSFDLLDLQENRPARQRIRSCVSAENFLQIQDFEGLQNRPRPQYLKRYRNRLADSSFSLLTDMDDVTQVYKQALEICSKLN

[7] = target: T2, Alpha-2A adrenergic receptor (Homo sapiens) (UniProt P08913); assay: Adrenergic alpha2A Eurofins-Panlabs radioligand binding assay; parameters: ligand concentration 1 nM, non-specific ligand with concentration 10 µM WB-4101, incubation time 60 min, incubation temperature 25 °C; details: Compound concentration 10.0 uM
T2 sequence (whole entry): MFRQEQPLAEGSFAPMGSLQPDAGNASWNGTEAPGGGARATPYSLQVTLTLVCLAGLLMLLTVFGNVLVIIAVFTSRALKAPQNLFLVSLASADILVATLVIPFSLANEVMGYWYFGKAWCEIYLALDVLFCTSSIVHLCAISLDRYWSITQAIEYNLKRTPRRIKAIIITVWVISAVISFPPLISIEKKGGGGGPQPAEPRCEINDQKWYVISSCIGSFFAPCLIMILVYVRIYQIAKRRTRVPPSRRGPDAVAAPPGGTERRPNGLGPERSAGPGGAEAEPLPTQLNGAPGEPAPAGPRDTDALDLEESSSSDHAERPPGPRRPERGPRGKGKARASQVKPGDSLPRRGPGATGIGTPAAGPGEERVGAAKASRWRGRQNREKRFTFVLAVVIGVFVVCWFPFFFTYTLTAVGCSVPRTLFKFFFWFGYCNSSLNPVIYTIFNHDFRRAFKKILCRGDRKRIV

[8] = target: Tyrosine-protein kinase SYK (Homo sapiens) (UniProt P43405); assay: SYK Kinase screen; details: Compound concentration 1.0 uM
[9] = target: Insulin receptor (Homo sapiens) (UniProt P06213); assay: Protein Tyrosine Kinase, Insulin Receptor Eurofins-Panlabs enzyme assay; parameters: substrate with concentration; details: Compound concentration 10.0 uM
[10] = target: Receptor tyrosine-protein kinase erbB-2 (Homo sapiens) (UniProt P04626); assay: ERBB2 (HER2) Kinase screen; details: Compound concentration 1.0 uM
Rattus norvegicus = species on record: Rattus norvegicus; assay: GABAA, Ro-15-1788, Hippocampus Eurofins-Panlabs radioligand binding assay; parameters: ligand concentration 1 nM; details: Compound concentration 10.0 uM
[11] = target: T3, Ephrin type-B receptor 3 (Homo sapiens) (UniProt P54753); assay: EPHB3 Kinase screen; details: Compound concentration 1.0 uM
T3 sequence (whole entry): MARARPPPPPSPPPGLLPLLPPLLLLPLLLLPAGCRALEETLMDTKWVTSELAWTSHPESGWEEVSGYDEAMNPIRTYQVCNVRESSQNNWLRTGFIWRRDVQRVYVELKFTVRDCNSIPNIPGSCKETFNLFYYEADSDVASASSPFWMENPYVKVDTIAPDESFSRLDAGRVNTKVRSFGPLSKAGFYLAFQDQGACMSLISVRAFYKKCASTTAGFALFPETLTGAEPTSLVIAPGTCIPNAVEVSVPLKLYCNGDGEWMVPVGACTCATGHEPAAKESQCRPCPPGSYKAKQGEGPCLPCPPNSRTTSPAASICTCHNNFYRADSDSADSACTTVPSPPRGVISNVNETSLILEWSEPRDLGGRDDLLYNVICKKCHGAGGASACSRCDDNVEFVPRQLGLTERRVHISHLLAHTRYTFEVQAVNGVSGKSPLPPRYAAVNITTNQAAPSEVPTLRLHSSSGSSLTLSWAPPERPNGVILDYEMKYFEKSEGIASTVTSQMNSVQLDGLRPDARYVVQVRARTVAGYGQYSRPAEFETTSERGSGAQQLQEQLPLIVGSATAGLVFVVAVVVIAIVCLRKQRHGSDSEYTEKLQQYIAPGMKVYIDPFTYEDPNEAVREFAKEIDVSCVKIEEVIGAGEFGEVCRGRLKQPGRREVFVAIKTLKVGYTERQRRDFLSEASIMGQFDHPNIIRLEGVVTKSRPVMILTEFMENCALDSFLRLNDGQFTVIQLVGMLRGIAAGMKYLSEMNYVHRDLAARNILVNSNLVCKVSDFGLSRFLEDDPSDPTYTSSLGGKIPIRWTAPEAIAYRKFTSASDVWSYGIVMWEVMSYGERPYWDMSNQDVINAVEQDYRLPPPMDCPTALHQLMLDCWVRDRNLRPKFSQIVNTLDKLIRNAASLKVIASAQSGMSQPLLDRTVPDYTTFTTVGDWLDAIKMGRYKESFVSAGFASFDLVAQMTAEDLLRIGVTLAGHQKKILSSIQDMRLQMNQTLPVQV

[12] = target: Phosphatidylinositol 4-phosphate 3-kinase C2 domain-containing subunit alpha (Homo sapiens) (UniProt O00443); assay: PIK3C2A (PI3K-C2 alpha) Kinase screen; details: Compound concentration 1.0 uM
[13] = target: Casein kinase I isoform alpha (Homo sapiens) (UniProt P48729); assay: CSNK1A1 (CK1 alpha 1) Kinase screen; details: Compound concentration 1.0 uM
[14] = target: Insulin receptor-related protein (Homo sapiens) (UniProt P14616); assay: INSRR (IRR) Kinase screen; details: Compound concentration 1.0 uM
[15] = target: Beta-1 adrenergic receptor (Homo sapiens) (UniProt P08588); details: Compound concentration 10.0 uM
[16] = target: Leucine-rich repeat serine/threonine-protein kinase 2 (Homo sapiens, UniProt Q5S007); assay: Cellular assay monitoring dephosphorylation of pSer935 LRRK2

Receptor tyrosine-protein kinase erbB-2 (Homo sapiens), sequence (P04626 whole entry): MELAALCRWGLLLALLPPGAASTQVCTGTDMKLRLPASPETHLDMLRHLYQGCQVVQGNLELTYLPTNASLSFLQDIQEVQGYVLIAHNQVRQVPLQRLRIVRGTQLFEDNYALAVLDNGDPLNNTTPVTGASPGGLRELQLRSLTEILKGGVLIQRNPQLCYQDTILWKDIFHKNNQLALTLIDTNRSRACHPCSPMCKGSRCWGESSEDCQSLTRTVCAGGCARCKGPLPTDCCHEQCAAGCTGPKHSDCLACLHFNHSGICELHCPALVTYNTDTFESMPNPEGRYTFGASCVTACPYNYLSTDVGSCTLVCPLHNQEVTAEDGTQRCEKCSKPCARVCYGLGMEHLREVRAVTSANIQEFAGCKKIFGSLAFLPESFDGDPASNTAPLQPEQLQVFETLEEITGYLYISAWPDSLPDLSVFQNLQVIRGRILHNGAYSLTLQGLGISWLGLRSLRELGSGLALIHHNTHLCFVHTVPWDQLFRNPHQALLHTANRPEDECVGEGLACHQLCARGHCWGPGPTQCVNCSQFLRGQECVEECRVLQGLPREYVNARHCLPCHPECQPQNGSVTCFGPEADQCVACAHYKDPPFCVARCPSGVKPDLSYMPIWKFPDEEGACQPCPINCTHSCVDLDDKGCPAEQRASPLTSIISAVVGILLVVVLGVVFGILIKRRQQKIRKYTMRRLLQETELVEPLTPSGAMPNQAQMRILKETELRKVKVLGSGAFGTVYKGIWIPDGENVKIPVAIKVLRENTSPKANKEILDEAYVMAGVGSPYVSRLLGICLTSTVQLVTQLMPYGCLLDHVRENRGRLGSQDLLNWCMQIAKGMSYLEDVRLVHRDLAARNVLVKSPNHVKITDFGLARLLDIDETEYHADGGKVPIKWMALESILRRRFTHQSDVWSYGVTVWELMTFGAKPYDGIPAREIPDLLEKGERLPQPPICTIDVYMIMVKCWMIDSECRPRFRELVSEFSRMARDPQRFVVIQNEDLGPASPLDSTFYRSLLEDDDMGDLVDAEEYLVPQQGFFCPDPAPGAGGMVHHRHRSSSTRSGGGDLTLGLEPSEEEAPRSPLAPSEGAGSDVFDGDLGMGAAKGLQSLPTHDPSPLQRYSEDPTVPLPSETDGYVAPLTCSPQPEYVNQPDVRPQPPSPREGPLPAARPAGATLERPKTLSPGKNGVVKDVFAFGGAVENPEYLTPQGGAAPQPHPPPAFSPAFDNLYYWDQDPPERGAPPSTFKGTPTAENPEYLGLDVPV
Protein-tyrosine kinase 6 (Homo sapiens), sequence (Q13882 whole entry, looked up): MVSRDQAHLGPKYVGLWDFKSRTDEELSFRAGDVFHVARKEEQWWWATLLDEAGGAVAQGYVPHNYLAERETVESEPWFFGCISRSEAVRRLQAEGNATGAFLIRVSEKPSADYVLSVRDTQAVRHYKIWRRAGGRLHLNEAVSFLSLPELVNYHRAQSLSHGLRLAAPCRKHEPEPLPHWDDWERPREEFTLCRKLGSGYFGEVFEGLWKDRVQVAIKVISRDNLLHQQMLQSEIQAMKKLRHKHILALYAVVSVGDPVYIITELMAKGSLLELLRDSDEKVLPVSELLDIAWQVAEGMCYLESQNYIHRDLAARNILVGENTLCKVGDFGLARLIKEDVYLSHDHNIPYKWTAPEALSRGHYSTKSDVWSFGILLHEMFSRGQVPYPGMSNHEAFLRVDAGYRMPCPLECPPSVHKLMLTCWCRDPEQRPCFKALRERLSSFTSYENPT
Casein kinase I isoform alpha (Homo sapiens), sequence (P48729 2-337 limits assumed): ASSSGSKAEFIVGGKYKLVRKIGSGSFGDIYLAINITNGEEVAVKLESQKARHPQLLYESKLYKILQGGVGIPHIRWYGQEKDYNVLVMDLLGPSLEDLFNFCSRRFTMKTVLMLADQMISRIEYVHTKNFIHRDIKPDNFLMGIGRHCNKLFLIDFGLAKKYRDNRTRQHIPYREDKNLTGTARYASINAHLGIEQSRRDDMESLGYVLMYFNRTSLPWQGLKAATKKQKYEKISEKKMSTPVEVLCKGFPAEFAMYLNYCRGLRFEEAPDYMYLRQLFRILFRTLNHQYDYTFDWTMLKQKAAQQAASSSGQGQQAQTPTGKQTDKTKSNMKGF
Insulin receptor (Homo sapiens), sequence (P06213 28-758 limits assumed): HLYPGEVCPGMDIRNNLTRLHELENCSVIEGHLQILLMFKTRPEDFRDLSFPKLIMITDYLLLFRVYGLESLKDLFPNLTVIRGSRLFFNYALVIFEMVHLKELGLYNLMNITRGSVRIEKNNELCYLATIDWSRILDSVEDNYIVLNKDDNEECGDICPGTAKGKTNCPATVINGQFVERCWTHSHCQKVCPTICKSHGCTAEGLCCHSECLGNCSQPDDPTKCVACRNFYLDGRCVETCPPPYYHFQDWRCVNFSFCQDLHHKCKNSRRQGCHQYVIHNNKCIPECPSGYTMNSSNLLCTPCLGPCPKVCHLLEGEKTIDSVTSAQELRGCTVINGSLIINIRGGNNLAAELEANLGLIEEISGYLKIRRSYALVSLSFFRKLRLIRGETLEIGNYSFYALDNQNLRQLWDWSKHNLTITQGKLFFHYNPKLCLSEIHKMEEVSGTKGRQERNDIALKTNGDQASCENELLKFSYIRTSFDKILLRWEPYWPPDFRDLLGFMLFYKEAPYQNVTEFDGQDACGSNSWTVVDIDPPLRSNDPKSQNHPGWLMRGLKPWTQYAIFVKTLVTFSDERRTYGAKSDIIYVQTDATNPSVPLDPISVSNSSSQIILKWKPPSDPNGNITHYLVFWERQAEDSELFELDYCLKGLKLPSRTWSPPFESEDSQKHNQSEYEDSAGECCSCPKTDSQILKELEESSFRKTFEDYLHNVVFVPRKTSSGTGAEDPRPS
Insulin receptor (Homo sapiens), sequence (P06213 763-1382 limits assumed): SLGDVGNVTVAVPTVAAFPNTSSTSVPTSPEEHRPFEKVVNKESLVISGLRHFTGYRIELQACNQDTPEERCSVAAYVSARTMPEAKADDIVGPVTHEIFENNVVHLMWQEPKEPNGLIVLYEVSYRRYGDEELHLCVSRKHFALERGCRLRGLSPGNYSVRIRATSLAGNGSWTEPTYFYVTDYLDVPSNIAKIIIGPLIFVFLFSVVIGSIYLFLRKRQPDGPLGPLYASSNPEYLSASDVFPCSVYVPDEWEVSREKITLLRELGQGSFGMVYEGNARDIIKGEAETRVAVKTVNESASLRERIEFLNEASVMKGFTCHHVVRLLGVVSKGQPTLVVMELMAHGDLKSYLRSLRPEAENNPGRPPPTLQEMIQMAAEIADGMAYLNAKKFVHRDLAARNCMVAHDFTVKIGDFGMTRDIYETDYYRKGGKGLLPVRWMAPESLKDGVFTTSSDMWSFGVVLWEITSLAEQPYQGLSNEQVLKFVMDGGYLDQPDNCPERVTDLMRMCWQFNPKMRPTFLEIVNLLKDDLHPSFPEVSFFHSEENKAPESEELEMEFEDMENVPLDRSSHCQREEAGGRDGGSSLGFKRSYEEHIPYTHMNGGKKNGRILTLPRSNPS
Phosphatidylinositol 4-phosphate 3-kinase C2 domain-containing subunit alpha (Homo sapiens), sequence (O00443 whole entry, the tested form may be a part, canonical isoform): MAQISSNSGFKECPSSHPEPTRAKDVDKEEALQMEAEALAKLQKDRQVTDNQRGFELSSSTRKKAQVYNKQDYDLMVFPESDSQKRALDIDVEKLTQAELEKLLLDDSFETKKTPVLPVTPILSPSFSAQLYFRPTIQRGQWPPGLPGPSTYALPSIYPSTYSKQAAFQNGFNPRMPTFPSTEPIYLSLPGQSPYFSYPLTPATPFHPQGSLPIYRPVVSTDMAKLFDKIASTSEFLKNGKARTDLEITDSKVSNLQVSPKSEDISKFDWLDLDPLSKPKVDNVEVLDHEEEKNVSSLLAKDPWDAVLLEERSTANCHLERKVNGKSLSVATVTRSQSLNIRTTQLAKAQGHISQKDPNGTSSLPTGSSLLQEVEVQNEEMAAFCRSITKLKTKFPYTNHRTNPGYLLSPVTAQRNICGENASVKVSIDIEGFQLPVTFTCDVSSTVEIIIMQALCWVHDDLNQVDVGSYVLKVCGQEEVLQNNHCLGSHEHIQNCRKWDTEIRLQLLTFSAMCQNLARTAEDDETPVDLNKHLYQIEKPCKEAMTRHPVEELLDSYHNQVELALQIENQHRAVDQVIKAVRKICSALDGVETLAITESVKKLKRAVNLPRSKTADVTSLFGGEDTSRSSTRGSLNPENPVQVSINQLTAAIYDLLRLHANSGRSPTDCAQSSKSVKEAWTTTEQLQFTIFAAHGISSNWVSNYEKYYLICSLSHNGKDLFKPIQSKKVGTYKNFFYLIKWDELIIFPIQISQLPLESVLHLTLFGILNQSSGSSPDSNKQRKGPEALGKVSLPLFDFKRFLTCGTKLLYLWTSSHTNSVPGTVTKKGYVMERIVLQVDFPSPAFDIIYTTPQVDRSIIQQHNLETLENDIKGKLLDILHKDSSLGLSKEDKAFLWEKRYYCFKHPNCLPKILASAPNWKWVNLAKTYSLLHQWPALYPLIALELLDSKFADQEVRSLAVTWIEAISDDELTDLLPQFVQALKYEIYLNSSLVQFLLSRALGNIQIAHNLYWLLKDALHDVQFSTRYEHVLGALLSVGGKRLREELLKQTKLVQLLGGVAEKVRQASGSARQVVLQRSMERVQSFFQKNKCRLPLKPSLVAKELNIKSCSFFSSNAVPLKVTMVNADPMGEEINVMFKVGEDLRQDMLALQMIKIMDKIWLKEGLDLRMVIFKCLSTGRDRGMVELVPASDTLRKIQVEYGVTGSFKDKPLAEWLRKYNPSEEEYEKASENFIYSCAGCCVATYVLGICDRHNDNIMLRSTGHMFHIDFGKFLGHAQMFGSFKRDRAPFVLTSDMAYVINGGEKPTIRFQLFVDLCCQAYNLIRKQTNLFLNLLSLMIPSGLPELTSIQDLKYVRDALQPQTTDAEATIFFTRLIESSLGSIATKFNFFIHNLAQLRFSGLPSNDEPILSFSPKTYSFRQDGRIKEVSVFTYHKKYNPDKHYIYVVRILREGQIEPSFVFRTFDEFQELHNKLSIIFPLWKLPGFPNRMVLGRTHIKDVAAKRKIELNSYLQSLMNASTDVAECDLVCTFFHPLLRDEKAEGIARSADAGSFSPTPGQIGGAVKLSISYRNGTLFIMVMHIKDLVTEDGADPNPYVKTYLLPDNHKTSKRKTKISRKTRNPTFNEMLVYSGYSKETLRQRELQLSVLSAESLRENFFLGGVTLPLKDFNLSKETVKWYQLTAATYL

Row | Structure (SMILES) | inhibition [1] | inhibition [2] | inhibition [3] | inhibition (Caspase-3 (Homo sapiens)) | inhibition [4] | inhibition [5] | inhibition [6] | inhibition [7] | inhibition [8] | inhibition [9] | inhibition [10] | inhibition (Rattus norvegicus) | inhibition [11] | inhibition [12] | inhibition [13] | inhibition [14] | inhibition [15] | IC50 [16]
1 | C[C@@H]1CN(c2cc(-c3n[nH]c4ccc(OC5(C)CC5)cc34)ncn2)C[C@H](C)O1 [MLi-2] | 9.35% | 9.38% | 0.435% | 12% | -0.77% | 2.74% | 14.5% | 6% | 2.84% | 9% | -2.46% | 1% | 9.87% | -0.741% | 1.89% | 21.1% |  | 
2 | C[C@@H]1CN(c2cc(-c3nn(C)c4ccc(OC5(C)CC5)cc34)ncn2)C[C@H](C)O1 [MLi-2-NC] |  |  |  |  |  |  |  |  |  |  |  |  |  |  |  |  | 5.75% | 5.44 µM (not active)
